Values after ≈ are worked out from the molar mass of the structure shown. Where two headings read alike, the source gives them in different places. Values belong to the molecule of their own block, whether it stands above or below them.
Legend:
Type in all cases: cell-based
[1] = test system: Acinetobacter baumanii ATCC BAA747; test: MIC/MBC, microbouillon dilution; details: Acinetobacter baumannii, ATCCBAA747
Procedure: (§1) Gram-Positive Bacteria • Methicillin resistant Staphylococcus aureus MRSA NCTC 10442 (MRSA NCTC 10442) • Staphylococcus aureus ATCC 25923 (S. aureus ATCC 25923) • Staphylococcus epidermidis ATCC 14990 (S. epid. ATCC 14990)
(§2) Gram-Negative Bacteria • Pseudomonas aeruginosa ATCC 27853 (P. aerug. ATCC 27853) and • Acinetobacter baumanii ATCC BAA747 (ATCC BAA747)
(§3) The bacteria were precultivated on Columbia medium with 5% sheep blood at 37° C. for 24 hours. On to two colonies were suspended in saline solution (0.9% NaCl) and adjusted to a turbidity of 0.5 McFarland standard which corresponds to 1×10^8 colony forming units per milliliter (CFU/ml). Subsequently, the suspension was diluted to 1×10^6 CFU/ml.
(§4) Determination of the Minimal Inhibitory Concentration (MIC) and the Minimum Bactericidal Concentration (MBC)
(§5) The MIC was determined by means of the microbouillon dilution process according to NCCLS (2006). For this purpose, the aqueous extracts were dissolved in water (w/v) and the ethanolic extracts in 5% DMSO (w/v) with 80 mg/ml each and Bur. simaruba as well as Aloe vera were suspended with 160 mg/ml. The extracts and the combinations (1:1 mixture) of two plant extracts were respectively transferred into a sample well of a 96-well plate. The individual extracts were respectively adjusted to a concentration of 4 mg/ml to 8 mg/ml and 0.03 mg/ml and the combinations to 2:2 mg/ml to 0.3:0.3 mg/ml. Subsequently, the bacteria suspensions with about 5×10^5 CFU/ml in Müller Hinton medium (Fluka) were respectively added. The accordingly fitted 96-well plates were incubated at 37° C. for 24 hours.
(§6) The MIC was determined at 600 nm on the basis of the turbidity. In order to determine the MBC, 3 μl of the suspension of the respective sample well were spread on an full culture medium and incubated at 37° C. for 24 hours. The MBC was determined as lowest concentrations of the respective extract which totally kills the microorganisms.
(§7) All experiments were performed as three-fold determination (Table 4 to 5). The antibiotics Vancomycin (briefly: Van) and Streptomycin (briefly: Strep) were used parallely to each experimental approach as positive control for antimicrobial efficiency (Table 5c). Respectively one of the mentioned test germs was carried along with the respectively solvent (water, DMSO) as negative control for an inhibiting effect by the used solvent.

[2] = test system: Methicillin resistant Staphylococcus aureus MRSA NCTC 10442; test: MIC/MBC, microbouillon dilution
Procedure: as §1, §2, §3, §4, §5, §6, §7

[3] = test system: Staphylococcus aureus ATCC 25923; test: MIC/MBC, microbouillon dilution
Procedure: as §1, §2, §3, §4, §5, §6, §7

[4] = test system: Staphylococcus epidermidis ATCC 14990; test: MIC/MBC, microbouillon dilution
Procedure: as §1, §2, §3, §4, §5, §6, §7

[5] = test system: Pseudomonas aeruginosa ATCC 27853; test: MIC/MBC, microbouillon dilution; details: ATCC27853, positive control antibiotic, unit from Table 5c
Procedure: as §1, §2, §3, §4, §5, §6, §7

[6] = MTT-assay, cytotoxicity of the extracts; details: human, HaCaT cells (keratinocytes), individual extracts, mean ± SD, n=3
Procedure: HaCaT-Cells (human in vitro spontaneous transformed keratinocytes from histologically normal skin) of DMSZ (German Collection of Microorganisms and Cell Cultures) were kept in Dulbecco's modified Eagle Medium (DMEM) with glutamax (Invitrogen/Gibco, Karlsruhe, Germany) with 10% fetal calf serum (Sigma Aldrich, Germany), 100 U/ml penicillin and 100 μg/ml streptomycin and 1% NEAA.
The cells were cultivated at 37° C., 5% CO2 and 95% humidity. The cells were subcultivated by removing the medium, adding 0.075% EDTA-solution in 1-fold PBS (phosphate-buffered salt solution) and subsequently incubated at 37° C. for 10 min. […]
In order to determine the concentration dependent cytotoxicity 2×10^4 HaCaT-cells/sample well of a 96-well plate were transferred and incubated for 24 hours. […] After dissolving the formazan crystals formed by the HaCaT-cells in 100 μl DMSO (10 minutes shaking), absorption at 570 nm was measured (by means of Tecan Safire II Reader, Tecan Crailsheim, Germany). Doxorubicin was measured as reference. Cell vitality was determined according to the following formula:
IC50-values were calculated through the dose response curve which was created by use of a logistic regression curve with 4 parameters with the GraphPad Prism® 5.01 Software or SigmaPlot® 11.0.

Compound: CN[C@H](CC(C)C)C(=O)N[C@H]1C(=O)N[C@@H](CC(N)=O)C(=O)N[C@H]2C(=O)N[C@H]3C(=O)N[C@H](C(=O)N[C@H](C(=O)O)c4cc(O)cc(O)c4-c4cc3ccc4O)[C@H](O)c3ccc(c(Cl)c3)Oc3cc2cc(c3O[C@@H]2O[C@H](CO)[C@@H](O)[C@H](O)[C@H]2O[C@H]2C[C@](C)(N)[C@H](O)[C@H](C)O2)Oc2ccc(cc2Cl)[C@H]1O [Van, Vancomycin]
MBC [1]: 128 µg/mL
MIC [1]: 64 µg/mL
MBC [2]: 2 µg/mL
MIC [2]: 1 µg/mL
MBC ([3]; ATCC25923): 0.5 µg/mL
MBC ([4]; ATCC14990): 2 µg/mL
MIC ([4]; ATCC14990): 1 µg/mL

MIC ([1]; positive control antibiotic, unit from Table 5c, read-out: MIC): 2 µg/mL
MIC [5]: 4 µg/mL
MIC ([3]; ATCC25923, positive control antibiotic, unit from Table 5c): 2 µg/mL
MIC ([4]; ATCC14990, positive control antibiotic, unit from Table 5c, read-out: MIC): 1 µg/mL
Compound: [H]/N=C(/N)N[C@H]1[C@H](O)[C@@H](O)[C@H](O[C@@H]2O[C@@H](C)[C@](O)(C=O)[C@H]2O[C@@H]2O[C@@H](CO)[C@H](O)[C@@H](O)[C@@H]2NC)[C@@H](N/C(N)=N\[H])[C@@H]1O [Strep, Streptomycin]
MBC ([1]; positive control antibiotic, unit from Table 5c, read-out: MBC): 4 µg/mL
MBC [5]: 8 µg/mL
MBC ([3]; ATCC25923, positive control antibiotic, unit from Table 5c, read-out: MBC): 8 µg/mL
MBC ([4]; ATCC14990, positive control antibiotic, unit from Table 5c, read-out: MBC): 8 µg/mL

Compound: COc1cccc2c1C(=O)c1c(O)c3c(c(O)c1C2=O)C[C@@](O)(C(=O)CO)C[C@@H]3O[C@H]1C[C@H](N)[C@H](O)[C@H](C)O1 [Doxorubicin]
IC50 [6]: 8.6 ± 2.03 µg/mL (≈ 15.8 µM)

Source: US10806765B2, “Immunologically active phyto-mixture and its use in the prevention and in a method for treatment of efflorescences” (priority 2015, dated 2020)
